Results reported in ChEMBL document CHEMBL1201862, “PubChem BioAssay data set” (2004).
Active and inactive are the calls of the source.

Experiments:
[1] = HEK293 Cytotoxicity Assay Measured in Cell-Based System Using Plate Reader - 7071-01_Inhibitor_Dose_CherryPick_Activity_Set2.; format: functional
HEK293 = assay: HEK293T cell cytotoxicity, dose response, cytotoxicity control, ATP luminescence, cherry-pick samples (AID 687005); format: functional, cell-based; details: Homo sapiens;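 also: cells exposed to compound for 48 hours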
HeLa = assay: HeLa cell cytotoxicity, dose response, cytotoxicity control, ATP luminescence, cherry-pick samples (AID 687004); format: functional, cell-based; details: Homo sapiens
[2] = target: T1, Oxysterols receptor LXR-beta (Homo sapiens, UniProt P55055); format: functional, cell-based;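 also: Cell-based luminescence dose-response assay of agonist activity at LXR, run as a confirmatory counterscreen to a daf-12 agonist screen; HEK293 cells with Gal4-LXR fusion and GAL4-driven luciferase reporter; agonist potency from rising luciferase signal of a Gal4-LXR reporter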
T1 sequence (P55055 whole entry): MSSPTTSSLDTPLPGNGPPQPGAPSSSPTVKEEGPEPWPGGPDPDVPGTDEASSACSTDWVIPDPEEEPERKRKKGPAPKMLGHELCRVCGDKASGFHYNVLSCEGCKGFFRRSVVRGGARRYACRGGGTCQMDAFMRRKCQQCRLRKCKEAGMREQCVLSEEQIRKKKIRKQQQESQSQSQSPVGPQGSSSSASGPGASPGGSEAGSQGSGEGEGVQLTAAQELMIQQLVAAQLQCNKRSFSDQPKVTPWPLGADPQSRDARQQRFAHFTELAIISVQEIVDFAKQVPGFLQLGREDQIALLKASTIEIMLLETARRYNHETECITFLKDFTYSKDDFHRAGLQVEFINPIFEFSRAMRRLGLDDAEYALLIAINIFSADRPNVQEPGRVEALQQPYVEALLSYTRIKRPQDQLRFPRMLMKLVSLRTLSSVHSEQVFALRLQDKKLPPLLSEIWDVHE

fMet-Leu-Phe receptor = fMet-Leu-Phe receptor (Homo sapiens, UniProt P21462); assay: FPR ligands, dose response (AID 519); format: functional
[3] = MC4R antagonists, dose response, counter-screen for LGR2 antagonist project, cell-based, plate reader, cherry pick (AID 743444); format: functional;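 also: transfected HEK 293 cells stimulated with alpha-MSH peptide; potency of inhibitors of the alpha-MSH evoked signal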
Cytochrome P450 2D6 = Cytochrome P450 2D6 (Homo sapiens, UniProt P10635);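 also: CYP2D6 member of a cytochrome P450 panel assay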
[4] = LGR2 antagonists, dose response, cell-based, HEK293, CRE-luciferase reporter, cherry pick, set 2 (AID 743343); format: functional;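 also: transfected cells were stimulated with diluted bursicon conditioned medium after compound addition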
Cytochrome P450 2C19 = Cytochrome P450 2C19 (Homo sapiens, UniProt P33261); assay: Cytochrome panel assay with activity outcomes. Panel member name: p450-cyp2c19 Compounds with AC50 equal or less than 10 uM are considered active; format: functional; details: read-out: AC50
[5] = target: Peroxisome proliferator-activated receptor gamma/Nuclear receptor coactivator 3 (Homo sapiens, UniProt P37231); format: functional;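 also: agonist potency for raising coactivator recruitment to the receptor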
[6] = A549 cell cytotoxicity, dose response, cytotoxicity control, plate reader, cherry-pick, antagonist series (AID 743412); format: functional, cell-based
[7] = target: Peroxisome proliferator-activated receptor gamma/Nuclear receptor coactivator 1 (Homo sapiens, UniProt P37231); format: functional;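 also: agonist potency as compounds enhance coactivator SRC-1 recruitment to PPARgamma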
[8] = HepG2 cell cytotoxicity, dose response, cytotoxicity control, plate reader, cherry-pick, antagonist series (AID 743416); format: functional, cell-based
[9] = target: Peroxisome proliferator-activated receptor gamma/Nuclear receptor coactivator 2 (Homo sapiens, UniProt P37231); format: functional;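 also: agonist potency for raising coactivator recruitment to the receptor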
[10] = ADAM10 protease inhibitors, dose response, selectivity assay for ADAM17 exosite inhibitor project, biochemical, FRET peptide substrate, recombinant human ADAM10 (AID 743259);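 also: ADAM10 enzyme cleaving a FRET peptide substrate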
[11] = target: Disintegrin and metalloproteinase domain-containing protein 17 (Homo sapiens, UniProt P78536); assay: exosite inhibitors of ADAM17, dose response, biochemical (AID 743260)
[12] = target: NAD-dependent protein deacylase sirtuin-5, mitochondrial (Homo sapiens, UniProt Q9NXA8); assay: SIRT5 desuccinylase inhibitors, dose response, biochemical, fluorescence imaging, cherry-pick, set 5 (AID 720591);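 also: desuccinylation of succinyl peptide AMC substrate read as fluorescence after trypsin release; potency of inhibitors that lower fluorescence and may act on trypsin instead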
[13] = Late stage counterscreen for inhibitors of Trypanosoma brucei methionyl tRNA synthetase (MetRS): Luminescence-based cell-based high throughput dose response assay to identify compounds that are cytotoxic to Jurkat human T lymphocyte cells.; format: functional
[14] = Late stage assay provider results from the probe development effort to identify selective inhibitors of heat shock protein 90 (HSP90): Absorbance-based cell proliferation assay in MCF7 cells.; format: functional
[15] = Late stage assay provider results from the probe development effort to identify selective inhibitors of heat shock protein 90 (HSP90): Absorbance-based cell proliferation assay in SKBR3 cells.; format: functional; details: SK-BR-3
[16] = target: T2, Methionyl-tRNA synthetase, putative (Trypanosoma brucei brucei, UniProt Q38C91); format: functional, Trypanosoma brucei brucei strain 927/4 GUTat10.1
T2 sequence (Q38C91 whole entry): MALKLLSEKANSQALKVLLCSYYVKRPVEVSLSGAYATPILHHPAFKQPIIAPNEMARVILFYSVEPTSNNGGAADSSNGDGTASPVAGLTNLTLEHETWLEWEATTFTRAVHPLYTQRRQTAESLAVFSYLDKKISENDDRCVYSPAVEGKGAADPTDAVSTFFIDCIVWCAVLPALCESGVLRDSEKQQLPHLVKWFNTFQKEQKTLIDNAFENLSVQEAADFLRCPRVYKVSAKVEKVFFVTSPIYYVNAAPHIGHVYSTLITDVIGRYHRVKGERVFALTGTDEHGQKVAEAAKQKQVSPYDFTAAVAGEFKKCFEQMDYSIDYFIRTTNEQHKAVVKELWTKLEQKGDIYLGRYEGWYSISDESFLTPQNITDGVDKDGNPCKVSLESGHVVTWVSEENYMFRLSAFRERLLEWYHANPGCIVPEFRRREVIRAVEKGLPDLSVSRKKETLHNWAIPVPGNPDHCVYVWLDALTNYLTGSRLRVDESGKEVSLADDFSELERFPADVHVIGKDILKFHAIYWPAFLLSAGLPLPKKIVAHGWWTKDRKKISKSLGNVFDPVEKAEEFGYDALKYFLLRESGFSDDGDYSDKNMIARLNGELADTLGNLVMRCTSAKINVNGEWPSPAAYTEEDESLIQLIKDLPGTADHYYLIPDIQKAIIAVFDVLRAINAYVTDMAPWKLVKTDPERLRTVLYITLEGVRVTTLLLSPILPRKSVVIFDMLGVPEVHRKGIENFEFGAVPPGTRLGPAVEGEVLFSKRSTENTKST

[17] = target: T2, Methionyl-tRNA synthetase, putative; format: functional, Trypanosoma brucei brucei strain 927/4 GUTat10.1; remark: listed apart in the source
[18] = Counterscreen for inhibitors of Trypanosoma brucei methionyl tRNA synthetase (MetRS): Luminescence-based cell-based high throughput dose response assay to identify compounds that are cytotoxic to Jurkat human T lymphocyte cells.; format: functional

Sequence of Disintegrin and metalloproteinase domain-containing protein 17 (P78536 whole entry, the tested form may be a part): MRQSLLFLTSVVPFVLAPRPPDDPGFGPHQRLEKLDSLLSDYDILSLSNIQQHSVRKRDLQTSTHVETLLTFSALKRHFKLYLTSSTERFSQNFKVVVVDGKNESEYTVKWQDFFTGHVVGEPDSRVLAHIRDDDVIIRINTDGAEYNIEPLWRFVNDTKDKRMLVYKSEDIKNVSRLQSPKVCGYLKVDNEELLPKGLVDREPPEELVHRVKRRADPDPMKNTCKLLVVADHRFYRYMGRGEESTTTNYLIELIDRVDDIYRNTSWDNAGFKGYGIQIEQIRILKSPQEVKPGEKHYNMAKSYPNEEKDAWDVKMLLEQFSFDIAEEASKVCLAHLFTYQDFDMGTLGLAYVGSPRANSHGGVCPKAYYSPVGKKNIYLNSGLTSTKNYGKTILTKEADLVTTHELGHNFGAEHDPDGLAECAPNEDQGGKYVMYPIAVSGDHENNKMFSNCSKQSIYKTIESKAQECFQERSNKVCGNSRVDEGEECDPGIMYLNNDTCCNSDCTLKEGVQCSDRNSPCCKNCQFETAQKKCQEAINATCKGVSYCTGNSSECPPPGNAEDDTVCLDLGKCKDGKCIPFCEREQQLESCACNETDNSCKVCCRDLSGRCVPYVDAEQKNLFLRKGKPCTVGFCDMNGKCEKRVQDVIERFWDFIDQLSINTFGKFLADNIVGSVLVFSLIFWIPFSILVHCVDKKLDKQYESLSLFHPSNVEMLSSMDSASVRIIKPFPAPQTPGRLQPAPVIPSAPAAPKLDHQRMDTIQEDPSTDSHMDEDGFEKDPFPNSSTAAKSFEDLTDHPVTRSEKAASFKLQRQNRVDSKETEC
Sequence of fMet-Leu-Phe receptor (P21462 whole entry): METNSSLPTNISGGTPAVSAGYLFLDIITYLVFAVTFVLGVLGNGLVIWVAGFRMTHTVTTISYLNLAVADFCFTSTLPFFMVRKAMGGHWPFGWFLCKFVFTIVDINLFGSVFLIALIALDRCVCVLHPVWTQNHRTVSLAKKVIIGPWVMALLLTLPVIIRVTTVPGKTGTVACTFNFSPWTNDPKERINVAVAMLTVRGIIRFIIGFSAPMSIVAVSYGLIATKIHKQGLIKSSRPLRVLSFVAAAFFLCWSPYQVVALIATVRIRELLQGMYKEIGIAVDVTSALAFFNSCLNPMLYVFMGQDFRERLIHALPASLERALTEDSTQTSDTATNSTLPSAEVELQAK
Sequence of NAD-dependent protein deacylase sirtuin-5, mitochondrial (Q9NXA8 whole entry): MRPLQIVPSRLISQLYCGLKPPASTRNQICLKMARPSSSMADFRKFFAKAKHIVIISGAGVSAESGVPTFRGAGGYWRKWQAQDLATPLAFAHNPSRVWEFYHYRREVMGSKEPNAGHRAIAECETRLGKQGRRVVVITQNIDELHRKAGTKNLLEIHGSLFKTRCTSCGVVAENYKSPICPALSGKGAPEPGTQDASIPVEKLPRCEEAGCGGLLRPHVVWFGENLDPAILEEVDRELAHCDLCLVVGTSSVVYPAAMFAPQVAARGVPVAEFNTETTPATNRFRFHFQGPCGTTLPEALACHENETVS
Sequence of Peroxisome proliferator-activated receptor gamma/Nuclear receptor coactivator 1 (P37231 whole entry): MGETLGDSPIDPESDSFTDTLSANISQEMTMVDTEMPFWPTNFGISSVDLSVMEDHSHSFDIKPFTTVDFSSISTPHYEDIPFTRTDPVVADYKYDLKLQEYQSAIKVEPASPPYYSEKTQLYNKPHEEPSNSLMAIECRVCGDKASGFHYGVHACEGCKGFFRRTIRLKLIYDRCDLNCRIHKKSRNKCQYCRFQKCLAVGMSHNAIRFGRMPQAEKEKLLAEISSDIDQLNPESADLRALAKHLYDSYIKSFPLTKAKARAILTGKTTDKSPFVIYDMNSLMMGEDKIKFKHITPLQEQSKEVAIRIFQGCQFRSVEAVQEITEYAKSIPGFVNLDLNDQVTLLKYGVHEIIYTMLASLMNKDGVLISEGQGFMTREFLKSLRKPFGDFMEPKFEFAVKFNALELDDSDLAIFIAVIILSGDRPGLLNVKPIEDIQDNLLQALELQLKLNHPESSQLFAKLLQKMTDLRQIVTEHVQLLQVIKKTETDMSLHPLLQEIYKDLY
Sequence of Peroxisome proliferator-activated receptor gamma/Nuclear receptor coactivator 1 (Q15788 whole entry, further chain): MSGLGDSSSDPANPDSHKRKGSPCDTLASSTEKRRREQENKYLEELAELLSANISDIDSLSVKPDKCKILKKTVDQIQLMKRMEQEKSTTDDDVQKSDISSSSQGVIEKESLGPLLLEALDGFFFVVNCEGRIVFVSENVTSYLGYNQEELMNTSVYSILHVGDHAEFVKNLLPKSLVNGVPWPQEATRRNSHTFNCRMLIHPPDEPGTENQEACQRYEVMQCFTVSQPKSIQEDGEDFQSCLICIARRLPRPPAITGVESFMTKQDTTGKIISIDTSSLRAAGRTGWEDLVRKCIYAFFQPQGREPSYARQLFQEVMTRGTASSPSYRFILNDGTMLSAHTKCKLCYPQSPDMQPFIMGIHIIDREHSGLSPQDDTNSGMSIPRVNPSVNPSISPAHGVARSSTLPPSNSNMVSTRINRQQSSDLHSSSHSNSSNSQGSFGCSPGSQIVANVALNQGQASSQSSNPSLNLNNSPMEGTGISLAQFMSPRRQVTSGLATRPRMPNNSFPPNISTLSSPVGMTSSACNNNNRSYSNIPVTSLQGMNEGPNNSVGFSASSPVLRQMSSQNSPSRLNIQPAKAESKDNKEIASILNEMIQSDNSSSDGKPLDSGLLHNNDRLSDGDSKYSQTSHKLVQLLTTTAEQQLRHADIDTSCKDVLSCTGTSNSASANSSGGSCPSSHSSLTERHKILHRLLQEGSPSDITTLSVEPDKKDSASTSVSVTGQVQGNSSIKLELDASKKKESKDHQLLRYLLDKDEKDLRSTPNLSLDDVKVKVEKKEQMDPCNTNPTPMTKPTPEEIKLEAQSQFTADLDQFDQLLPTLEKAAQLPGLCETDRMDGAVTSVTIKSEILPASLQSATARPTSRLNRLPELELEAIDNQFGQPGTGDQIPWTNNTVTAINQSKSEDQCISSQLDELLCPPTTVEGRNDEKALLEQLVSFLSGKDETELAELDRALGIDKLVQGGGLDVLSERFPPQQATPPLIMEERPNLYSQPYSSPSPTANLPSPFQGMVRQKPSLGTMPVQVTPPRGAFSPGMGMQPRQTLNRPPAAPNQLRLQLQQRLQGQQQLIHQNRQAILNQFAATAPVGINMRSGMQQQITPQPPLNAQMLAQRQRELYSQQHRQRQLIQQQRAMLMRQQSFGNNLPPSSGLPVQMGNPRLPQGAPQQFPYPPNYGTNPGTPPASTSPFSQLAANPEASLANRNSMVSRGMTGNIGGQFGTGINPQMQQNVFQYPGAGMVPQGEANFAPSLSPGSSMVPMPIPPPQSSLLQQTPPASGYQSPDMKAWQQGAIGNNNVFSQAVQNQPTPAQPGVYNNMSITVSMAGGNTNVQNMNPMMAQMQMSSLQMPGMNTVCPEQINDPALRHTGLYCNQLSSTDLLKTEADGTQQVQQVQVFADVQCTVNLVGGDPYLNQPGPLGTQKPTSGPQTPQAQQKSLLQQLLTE
Sequence of Cytochrome P450 2C19 (P33261 whole entry): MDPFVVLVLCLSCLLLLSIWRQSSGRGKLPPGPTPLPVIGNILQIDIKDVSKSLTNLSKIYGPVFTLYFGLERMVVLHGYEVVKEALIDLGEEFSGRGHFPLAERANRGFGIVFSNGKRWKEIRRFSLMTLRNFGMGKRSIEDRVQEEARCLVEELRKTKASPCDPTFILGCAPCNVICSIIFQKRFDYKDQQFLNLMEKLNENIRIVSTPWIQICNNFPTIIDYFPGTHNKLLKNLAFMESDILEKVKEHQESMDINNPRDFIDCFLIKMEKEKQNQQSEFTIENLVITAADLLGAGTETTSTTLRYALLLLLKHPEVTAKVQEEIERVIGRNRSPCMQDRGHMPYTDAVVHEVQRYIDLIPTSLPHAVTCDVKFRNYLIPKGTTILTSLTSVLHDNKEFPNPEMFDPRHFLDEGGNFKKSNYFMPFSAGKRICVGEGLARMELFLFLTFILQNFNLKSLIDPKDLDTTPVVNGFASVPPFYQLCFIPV
Sequence of Cytochrome P450 2D6 (P10635 whole entry): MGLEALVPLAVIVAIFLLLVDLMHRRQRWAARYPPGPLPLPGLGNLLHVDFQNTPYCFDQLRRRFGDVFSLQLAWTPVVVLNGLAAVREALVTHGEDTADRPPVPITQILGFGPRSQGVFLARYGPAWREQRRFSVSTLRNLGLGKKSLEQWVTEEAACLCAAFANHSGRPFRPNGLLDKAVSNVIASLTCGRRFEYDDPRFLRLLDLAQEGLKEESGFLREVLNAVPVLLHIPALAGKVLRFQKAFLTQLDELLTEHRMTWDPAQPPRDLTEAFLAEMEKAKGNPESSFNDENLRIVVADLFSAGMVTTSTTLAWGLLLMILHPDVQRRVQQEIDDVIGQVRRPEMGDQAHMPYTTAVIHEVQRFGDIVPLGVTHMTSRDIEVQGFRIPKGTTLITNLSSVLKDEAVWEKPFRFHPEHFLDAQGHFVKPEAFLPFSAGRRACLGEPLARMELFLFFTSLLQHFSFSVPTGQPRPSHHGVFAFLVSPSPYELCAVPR

Cc1ccc(N=C(S)Nc2ccc(Cl)c(Cl)c2)c(OC(F)F)c1
AC50 [1]: 26.6 µM (active)
AC50 (HEK293): 26.6 µM (active)
AC50 (HeLa): 29.9 µM (active)

NNc1nc(-c2ccccc2)nc2sc3c(c12)CCCC3
EC50 (cells): > 67.5 µM (inactive)
EC50 [2]: > 67.5 µM (inactive)

COCCCN1C(=O)C(O)=C(C(=O)c2ccco2)C1c1ccc(Br)cc1 (centres undefined)
Ki (fMet-Leu-Phe receptor): 14.7 µM (active)

Cc1ccc(NC(=O)c2sc3ccccc3c2Cl)nc1
AC50 [3]: 3.36 µM (active)
AC50 (Cytochrome P450 2D6): 3.16 µM (inconclusive)
AC50 [4]: 2.52 µM (active)
AC50 (Cytochrome P450 2C19): 7.94 µM (inconclusive)
EC50 [5]: 52 µM (not active)
AC50 [6]: 50.8 µM (active)
EC50 [7]: 53.2 µM (not active)
AC50 [8]: > 52 µM (inactive)
EC50 [9]: 41.5 µM (not active)
EC50 (cells): > 67.5 µM (inactive)
EC50 [2]: > 67.5 µM (inactive)

O=C(SCC(O)C(O)CS)c1cccs1 (centres undefined)
IC50 [10]: 40.5 µM (inactive)
IC50 [11]: 3.76 µM (active)

OCc1nc2ccccc2n1CC(O)Cn1ccc2ccccc21 (centres undefined)
Ki (fMet-Leu-Phe receptor): > 66.7 µM (inactive)

C[C@H](c1ccccc1)N1C[C@H](COCc2ccccc2)Oc2cc(N3CC[C@@H](O)C3)ccc2S1(=O)=O
IC50 [10]: 16 µM (inactive)
IC50 [11]: > 69.5 µM (inactive)

COC(=O)[C@]12CCCCC=C1N(Cc1ccc(Cl)cc1Cl)C(=O)[C@H](CC(=O)NCc1cccc(C(F)(F)F)c1)C2
AC50 [12]: > 30 µM (inactive)

C[C@@H]1CCCCO[C@@H](CN(C)S(=O)(=O)c2ccc(F)cc2)[C@@H](C)CN([C@@H](C)CO)C(=O)c2cc(NS(=O)(=O)c3ccc(F)cc3)ccc2O1
AC50 [1]: 17.1 µM (active)
AC50 (HEK293): 17.1 µM (active)

O=C(NCc1nc2ccccc2[nH]1)C1=C[C@H](c2ccc(Br)cc2)C[C@H](OCCCCO)O1
IC50 [13]: 66.7 µM (inactive)

O=C(Nc1ccc(F)cc1)c1coc(=O)c(Br)c1
IC50 [14]: 3.4 µM (active)
IC50 [15]: 8.8 µM (active)

O=C1OC(=O)/C(=C\Nc2cnc3ccccc3c2)C=C1Br
IC50 [14]: 12.1 µM (inactive)
IC50 [15]: 17.4 µM (inactive)

CCOC(=O)N1CCC(Nc2c(Nc3ccc(F)cc3)c(=O)c2=O)CC1
IC50 [16]: 4.36 µM (active)
IC50 [17]: 7.98 µM (active)
IC50 [13]: > 83.3 µM (inactive)
IC50 [18]: 83.3 µM (inactive)
